Among the data in article PMC8898874, “NPT1220-312, a TLR2/TLR9 Small Molecule Antagonist, Inhibits Pro-Inflammatory Signaling, Cytokine Release, and NLRP3 Inflammasome Activation” (International Journal of Inflammation, 2022) are IC50 values, retold here.

As usually defined, the IC50 is the concentration that gives 50% inhibition.

For test [1], the target named is T1, TLR2/6 (Homo sapiens, UniProt O60603).
T1 construct: host or cells: HEK293 (HEK-Blue hTLR2)
In words: HEK-Blue hTLR2 SEAP reporter assay, Pam2CSK4-activated (TLR2/6). The note with it: hTLR2 HEK cells activated with Pam2CSK4; mean of at least three determinations; read-out: IC50 (PAM-2; μM). Format: cell-based. The source says: (§1) Human embryonic kidney (HEK) Blue hTLR2 secreted embryonic alkaline phosphatase (SEAP) reporter 293 cells, expressing the human TLR2 gene; HEK-Blue hTLR3 SEAP reporter 293 cells, expressing the human TLR3 gene; HEK-Blue hTLR4 SEAP reporter 293 cells, expressing the human TLR4 gene; HEK-Blue hTLR7 SEAP reporter 293 cells, expressing the human TLR7 gene; and HEK-Blue hTLR8 SEAP reporter 293 cells, expressing the human TLR8 gene. HEK Blue cells expressing recombinant human TLRs were obtained by cotransfection of the human TLR2, TLR3, TLR4, TLR7, TLR8, or TLR9 and SEAP (secreted embryonic alkaline phosphatase) genes into HEK293 cells. The SEAP reporter gene was placed under the control of a minimal promoter fused to five NFĸB and AP-1 binding sites. Stimulation with TLRs ligands activates NFĸB and AP-1 that induce the production of SEAP. Therefore, these cells are designed for studying the stimulation of TLRs by monitoring the activation of NFĸB/AP-1. These NFĸB reporter cell lines were used as a primary screening tool due to their robust and well-characterized responses to TLRs activators and inhibitors. […]
(A reporter such as luciferase makes a cellular process visible.)

Test [2] has as its target T2, TLR1/2 (Homo sapiens, UniProt O60603).
T2 construct: host or cells: HEK293 (HEK-Blue hTLR2)
As to the kind of experiment: HEK-Blue hTLR2 SEAP reporter assay, Pam3CSK4-activated (TLR1/2). The note with it: hTLR2 HEK cells activated with Pam3CSK4; mean of at least three determinations; read-out: IC50 (PAM-3; μM). Format: cell-based.
From the text: as §1

T2 sequence (O60603 21-784): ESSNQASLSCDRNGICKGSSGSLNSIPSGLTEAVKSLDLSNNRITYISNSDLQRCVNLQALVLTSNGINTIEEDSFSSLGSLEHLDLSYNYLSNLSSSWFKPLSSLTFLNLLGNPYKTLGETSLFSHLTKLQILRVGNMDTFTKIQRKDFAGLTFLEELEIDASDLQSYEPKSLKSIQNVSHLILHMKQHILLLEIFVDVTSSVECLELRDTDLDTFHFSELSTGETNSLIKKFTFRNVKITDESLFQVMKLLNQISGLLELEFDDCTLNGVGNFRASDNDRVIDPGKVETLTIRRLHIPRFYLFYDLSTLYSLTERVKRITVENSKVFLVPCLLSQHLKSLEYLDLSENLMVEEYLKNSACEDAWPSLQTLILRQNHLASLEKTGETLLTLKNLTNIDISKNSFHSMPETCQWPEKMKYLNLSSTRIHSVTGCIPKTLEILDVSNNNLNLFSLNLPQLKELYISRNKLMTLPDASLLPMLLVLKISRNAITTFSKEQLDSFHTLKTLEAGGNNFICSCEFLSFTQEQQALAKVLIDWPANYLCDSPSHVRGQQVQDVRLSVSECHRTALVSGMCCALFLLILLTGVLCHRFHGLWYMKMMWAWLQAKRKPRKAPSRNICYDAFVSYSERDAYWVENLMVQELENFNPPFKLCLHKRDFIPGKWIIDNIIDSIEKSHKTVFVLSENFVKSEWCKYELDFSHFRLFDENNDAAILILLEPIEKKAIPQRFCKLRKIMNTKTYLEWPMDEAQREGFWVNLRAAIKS
T1 sequence (O60603 21-784): as above

With `COc1cccc(C=O)c1O` [O-vanillin], the IC50 in test [1] was determined as 61.6 µM; in test [2], 40.2 µM.
